In ChEMBL document CHEMBL1131207, “Discovery and evaluation of a series of 3-acylindole imidazopyridine platelet-activating factor antagonists” (J Med Chem, 1998):
Values after ≈ are worked out from the molar mass of the structure shown.

Columns and labels:
[1] = The compound was evaluated for its bioavailability in rat; format: ADME, organism-based; conditions: in vivo
[2] = The compound was evaluated for its bioavailability in monkey; format: ADME, organism-based; conditions: primates, in vivo
[3] = test system: Cavia porcellus; assay: The compound was evaluated for its PAF-induced vascular permeability in guinea pig when dosed orally; format: functional; conditions: po
[4] = test system: Rattus norvegicus; assay: The compound was evaluated for its PAF-induced vascular permeability in rat when dosed orally; format: functional; conditions: po
[5] = molecular target: Platelet-activating factor receptor (Homo sapiens, UniProt P25105); assay: The compound was evaluated for its binding affinity against PAF receptor in human platelet
Platelet-activating factor receptor, sequence (P25105 whole entry): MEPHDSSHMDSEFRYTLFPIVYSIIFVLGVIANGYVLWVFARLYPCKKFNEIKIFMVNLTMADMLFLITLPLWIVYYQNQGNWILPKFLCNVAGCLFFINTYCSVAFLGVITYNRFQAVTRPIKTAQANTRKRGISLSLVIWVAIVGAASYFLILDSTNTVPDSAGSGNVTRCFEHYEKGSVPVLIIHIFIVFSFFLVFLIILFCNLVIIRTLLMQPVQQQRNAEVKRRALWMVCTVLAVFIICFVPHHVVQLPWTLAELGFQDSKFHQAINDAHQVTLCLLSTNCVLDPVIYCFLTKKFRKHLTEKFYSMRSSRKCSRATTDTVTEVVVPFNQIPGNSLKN

[6] = test system: Cavia porcellus; assay: The compound was evaluated for its PAF-induced vascular permeability in guinea pig when dosed intravenously; format: functional; conditions: iv
[7] = test system: Rattus norvegicus; assay: The compound was evaluated for its PAF-induced vascular permeability in rat when dosed intravenously; format: functional; conditions: iv
[8] = molecular target: Platelet-activating factor receptor (Rattus norvegicus) (UniProt P46002); assay: Ability to block the effect of exogenously administered PAF upon intravenous administration in PAF-induced rat skin permeability assay; format: functional, organism-based
Platelet-activating factor receptor (Rattus norvegicus), sequence (P46002 whole entry): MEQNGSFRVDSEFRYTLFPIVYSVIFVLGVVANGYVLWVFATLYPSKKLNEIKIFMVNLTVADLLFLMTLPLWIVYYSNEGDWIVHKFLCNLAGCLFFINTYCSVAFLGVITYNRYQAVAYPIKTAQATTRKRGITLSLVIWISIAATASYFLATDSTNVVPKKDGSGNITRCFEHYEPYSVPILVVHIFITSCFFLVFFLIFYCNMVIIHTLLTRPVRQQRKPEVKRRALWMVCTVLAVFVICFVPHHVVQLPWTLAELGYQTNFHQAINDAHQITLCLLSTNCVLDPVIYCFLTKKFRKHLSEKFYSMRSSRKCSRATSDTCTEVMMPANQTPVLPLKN

[9] = The compound was evaluated for its solubility in lactate buffer at pH 3; format: ADME
[10] = molecular target: Platelet-activating factor receptor (Rattus norvegicus) (UniProt P46002); assay: Tested in vivo for to block the effect of exogenously administered PAF upon oral administration in PAF-induced rat skin permeability assay; format: functional, organism-based
[11] = The solubility in lactate buffer at pH 3 was evaluated; format: ADME
[12] = test system: Cavia porcellus; assay: The compound was evaluated for PAF-induced vascular permeability in guinea pig when dosed orally; format: functional; conditions: po
[13] = The bioavailability in monkey was evaluated; format: ADME, organism-based; conditions: primates, in vivo
[14] = test system: Cavia porcellus; assay: The compound was evaluated for PAF-induced vascular permeability in guinea pig when dosed intravenously; format: functional; conditions: iv
[15] = The bioavailability in rat was evaluated; format: ADME, organism-based; conditions: in vivo

In the case of CC(=O)OC[n+]1cccc([C@H]2SCc3c(C(=O)c4cn(C(=O)N(C)C)c5cc(-c6ccc(F)cc6)ccc45)ccn32)c1.[Cl-], the bioavailability [1] is reported as 46%, the bioavailability [2] is reported as 36% and the ED50 [3] is reported as 0.08 mg/kg. The ED50 [4] was 0.08 mg/kg, the Ki [5] was 0.98 nM and the ED50 [6] was 0.09 mg/kg. The ED50 [7] was 0.006 mg/kg.
Compound Cc1nc2cnccc2n1Cc1ccc(C(=O)c2cn(C(=O)N(C)C)c3cc(-c4ccc(F)cc4)ccc23)cc1 has an ED50 [8] of 0.068 mg/kg, an ED50 [4] of 0.5 mg/kg and a solubility [9] of 0.12 mg/mL (≈ 0.226 mM).
With C#Cc1cccc2c1c(C(=O)c1ccc(Cn3c(C)nc4cnccc43)c(F)c1)cn2C(=O)N(C)C the ED50 [10] was 0.094 mg/kg, the ED50 [8] was 0.003 mg/kg and the solubility [11] was > 20 mg/mL. The ED50 [12] was 0.29 mg/kg, the bioavailability [13] was 56% and the ED50 [14] was 0.016 mg/kg. For the same compound, the Ki [5] was 0.57 nM and the bioavailability [15] was 49%.
With CCOC(=O)[C@H](CC(C)C)N(C)S(=O)(=O)c1ccc(Cn2c(C)nc3cnccc32)cc1 [LEXIPAFANT] the ED50 [3] was 10.3 mg/kg, the ED50 [4] was 0.8 mg/kg and the solubility [9] was > 20 mg/mL. It also gave a Ki [5] of 0.38 nM, an ED50 [6] of 0.027 mg/kg and an ED50 [7] of 0.02 mg/kg.
